We go through 52 molecules from the supplement of paper PMC3974653.

Counter-ions that a name gives are not always drawn. Where only a bound is given, the exact number is not on record here.

In the assay the test system is MTT (mouse pheochromocytoma). Nature of the assay: IC50 of cell viability (ATP content). Conditions: (24 or 48 h). In short, it runs like this:
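After overnight culture at 37°C, 5% CO2 in white 1536-well plates, MTT mouse pheochromocytoma cells were given 23 nl of library compound in DMSO by pintool across 8 concentrations, spanning final 0.5 nM to 46 µM. Following 24 or 48 hrs, CellTiter-Glo luminescence was read after 15 minutes and normalised against positive-control (100%) and DMSO (0%) wells. A four-parameter logistic model provided the IC50.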

As to `COc1cc2nc(N(C)CCCNC(=O)[C@H]3CCCO3)nc(N)c2cc1OC` [Alfuzosin hydrochloride], the “IC50 of cell viability” value is greater than 46 µM. In the case of `C=CCc1cc(OC)c(O)c(C(=O)NCCO)c1` [Alibendol] it was greater than 46 µM. In the case of `C=CCN(C1=NCCN1)c1c(Cl)cccc1Cl` [Alinidine] it was greater than 46 µM; in that of `COCCCOc1cc(C[C@@H](C[C@H](N)[C@@H](O)C[C@H](C(=O)NCC(C)(C)C(N)=O)C(C)C)C(C)C)ccc1OC` [Aliskiren], greater than 46 µM. With `NC(=O)N[C@H]1NC(=O)NC1=O` [Allantoin] the figure was greater than 46 µM; with `CC(C)=CC1C(C(=O)OC\2CC(=O)\C(=C2C)CC=C)C1(C)C` (configuration not stated) [Allethrin], greater than 46 µM.

As to `COC(=O)C1C(OC(=O)c2ccccc2)CC2CCC1N2C` (configuration not stated) [Allococaine], the “IC50 of cell viability” value is greater than 46 µM. Consider `Oc1ncnc2[nH]ncc12` [Allopurinol], for which the “IC50 of cell viability” value is greater than 46 µM.

For the molecule `C=CCN=C=S` [Allyl isothiocyanate], the “IC50 of cell viability” value was greater than 46 µM. With `C=CC[C@]1(O)CCC2C3CCC4=CCCCC4C3CCC21C` (some centres not stated) [Allylestrenol] the figure was greater than 46 µM. In the case of `C=CCNC(N)=S` [Allylthiourea] it was greater than 46 µM; in that of `Cc1cn([C@H]2CC(F)[C@@H](CO)O2)c(=O)[nH]c1=O` (some centres not stated) [Alovudine], greater than 46 µM; in that of `Cc1c(C)c2c(c(C)c1O)CC[C@@](C)(CCC[C@H](C)CCC[C@H](C)CCCC(C)C)O2` [Alpha-Vitamin E], greater than 46 µM. Take `CCCN(CCC)C(=O)Cc1c(-c2ccc(Cl)cc2)nc2ccc(Cl)cn12` [Alpidem]: the “IC50 of cell viability” value is greater than 46 µM. In the case of `CCCCC[C@H](O)/C=C\[C@@H]1[C@H](O)CC(=O)[C@@H]1CCCCCCC(=O)O` [Alprostadil] it was greater than 46 µM.

Consider `O=C(O)CN1C(=O)c2cccc3cccc(c23)C1=O` [Alrestatin], for which the “IC50 of cell viability” value is greater than 46 µM. With `O=C(c1ccc(F)cc1)C1CCN(CCn2c(=S)[nH]c3ccccc3c2=O)CC1` [Altanserin hydrochloride] the figure was greater than 46 µM; with `C=CCC1(O)CCC2C3CCC4=CC(=O)CCC4=C3C=CC21C` (configuration not stated) [Altrenogest], greater than 46 µM. For the molecule `CN(C)c1nc(N(C)C)nc(N(C)C)n1` [Altretamine], the “IC50 of cell viability” value was greater than 46 µM. In the case of `CCCCCCCCCCCCCCCCCC(=O)[O][Al]([OH])[OH]` [Aluminum monostearate] it was greater than 46 µM. With `CC(=O)[O][Al]([OH])[O]C(C)=O` [Aluminum subacetate] the figure was greater than 46 µM. For the molecule `CCN(CCCc1ccccc1)CCCc1ccccc1.O=C(O)CC(O)(CC(=O)O)C(=O)O` [Alverine citrate salt], the “IC50 of cell viability” value is greater than 46 µM.

As to `Nc1ncnc(Nc2ccccc2)n1` [Amanozine], the “IC50 of cell viability” value is greater than 46 µM. In the case of `CC1(C)SC2[C@@H](/N=C/N3CCCCCC3)C(=O)N2[C@H]1C(=O)O` (some centres not stated) [Amdinocillin] it was greater than 46 µM. For `Nc1c(CC(=O)[O-])cccc1C(=O)c1ccccc1` [Amfenac Sodium], the “IC50 of cell viability” value was greater than 46 µM.

As to `NCCCNCCSP(=O)(O)O` [Amifostine], the “IC50 of cell viability” value is greater than 46 µM. With `NCC[C@H](O)C(=O)N[C@@H]1C[C@H](N)[C@@H](O[C@H]2O[C@H](CN)[C@@H](O)[C@H](O)[C@H]2O)[C@H](O)[C@H]1O[C@H]1O[C@H](CO)[C@@H](O)[C@H](N)[C@H]1O` [Amikacin sulfate] the figure was greater than 46 µM; with `O=C(O)CCCCCCNC1c2ccccc2CCc2ccccc21` [Amineptine], greater than 46 µM; with `NCCCCCC(=O)O` [Aminocaproic acid], greater than 46 µM. Take `Nc1ccc(C(=O)NCC(=O)O)cc1` [Aminohippuric acid]: the “IC50 of cell viability” value was greater than 46 µM.

As for `CCCCc1oc2ccccc2c1C(=O)c1cc(I)c(OCCN(CC)CC)c(I)c1` [Amiodarone hydrochloride], the “IC50 of cell viability” value is greater than 46 µM. With `CCN1CCCC1CNC(=O)c1cc([S+](=O)([O-])CC)c(N)cc1OC` (configuration not stated) [Amisulpride] the figure was greater than 46 µM; with `CN(C)CCC=C1c2ccccc2CCc2ccccc21` [Amitriptyline], greater than 46 µM; with `CCOC(=O)C/1=C(COCCN)/N\C(=C(C1C2=C(Cl)C=CC=C2)\C(=O)OC)C` (configuration not stated) [Amlodipine besylate], greater than 46 µM. In the case of `CCN(CC)Cc1cc(Nc2ccnc3cc(Cl)ccc23)ccc1O.Cl.Cl.O.O` [Amodiaquin dihydrochloride dihydrate] it was greater than 46 µM; in that of `COc1cc(C(=O)OC(COCCC(C)C)CN2CCOCC2)cc(OC)c1OC` (configuration not stated) [Amoproxan], greater than 46 µM.

Regarding `CCNC(=O)N1CCN(CCCC(c2ccc(F)cc2)c2ccc(F)cc2)CC1.Cl` [Amperozide hydrochloride], the “IC50 of cell viability” value is greater than 46 µM. With `C[C@@H]1[C@H](O)[C@@H](C)/C=C/C=C/C=C/C=C/C=C/C=C/C=C/[C@H](O[C@@H]2O[C@H](C)[C@@H](O)[C@H](N)[C@@H]2O)C[C@@H]2O[C@](O)(C[C@@H](O)C[C@@H](O)[C@H](O)CC[C@@H](O)C[C@@H](O)CC(=O)O[C@H]1C)C[C@H](O)[C@H]2C(=O)O` [Amphotericin B] the figure was greater than 46 µM; with `CC1(C)SC2C(NC(=O)C(N)c3ccccc3)C(=O)N2C1C(=O)O` (configuration not stated) [Ampicillin A], greater than 46 µM; with `CC(C)CN(C[C@@H](O)[C@H](Cc1ccccc1)NC(=O)O[C@H]1CCOC1)[S+](=O)([O-])c1ccc(N)cc1` [Amprenavir], greater than 46 µM. With `CCCc1ncc(C[n+]2ccccc2C)c(N)n1.Cl.[Cl-]` [Amprolium hydrochloride] the figure was greater than 46 µM. Regarding `CN1N(C2=CC=CC=C2)C(=O)C(=C1/C)/N` [Ampyrone], the “IC50 of cell viability” value is greater than 46 µM. In the case of `Nc1cc(-c2ccncc2)c[nH]c1=O` [Amrinone] it was greater than 46 µM; in that of `COc1cc(N[S+](C)(=O)[O-])ccc1Nc1c2ccccc2nc2ccccc12.Cl` [Amsacrine hydrochloride], greater than 46 µM. In the case of `CC[C@](C)(CN(C)C)OC(=O)c1ccccc1` [Amyleine hydrochloride] it was greater than 46 µM; in that of `O=C1CN2Cc3c(ccc(Cl)c3Cl)NC2=N1` [Anagrelide hydrochloride], greater than 46 µM.

Turning to `CC(C)(C#N)c1cc(Cn2cncn2)cc(C(C)(C)C#N)c1` [Anastrozole], the “IC50 of cell viability” value is greater than 46 µM. `C/C=C/c1ccc(OC)cc1` [Anethole]: the “IC50 of cell viability” value is greater than 46 µM.

For `CNC(=O)Oc1ccccc1C(=O)Nc1ccccc1` [Anilamate], the “IC50 of cell viability” value is greater than 46 µM. In the case of `Nc1ccccc1.O=[N+]([O-])O` [Anilinium nitrate] it was greater than 46 µM; in that of `CCCC(CCC)C(=O)OC1C[C@H]2CC[C@@H](C1)[N+]2(C)C` (some centres not stated) [Anisotropine methyl bromide], greater than 46 µM. For `C1C\N=C(\CN(CC2=CC=CC=C2)C3=CC=CC=C3)N1` [Antazoline hydrochloride], the “IC50 of cell viability” value was greater than 46 µM.
